# Data reported in patent publication US20050202515A1, “Functional method for generating or screening for ligands which modulate steroid hormone receptors” (Wyeth, priority 2004, published 2005).
# Ends that are not written are not given here.
# Experiments:
# [1] = system: PI3-K; assay: PI3-K activity in p85 immunoprecipitates from MCF-7 cells; assay type: cell-based
# Description: Transfections and cell lysates preparation. […] Cell debris was removed by centrifugation.
# Immunoprecipitation and kinase assays.
# For PI3-K reaction, p85 was immunoprecipitated from cell lysates as described above. Kinase activity in the immunoprecipitate was detected using PI3-Kinase ELISA kit from Echelon Biosciences according to the manufacture's instructions. Briefly, reaction was run in 50 μl volume by adding 5 μl of 10× reaction buffer and 10 μl of PI(4,5)P2 substrate solution (10 μM) to the p85 immunoprecipitate. After the PI3-K reactions was complete, reaction products are first mixed and incubated with a PI(3,4,5)P3 detecting antibody, then added to the PI(3,4,5)P3-coated microplate for competitive binding. A peroxidase-linked secondary detection reagent and colorirnetric detection was used to detect PI(3,4,5)P3 detecting antibody binding to the plate. The colorimetric signal was inversely proportional to the amount of PI(3,4,5)P3 produced by PI 3-K activity.
# [2] = system: Akt; assay: Western blotting analysis of phosphorylated Akt in MCF-7 cells; assay type: cell-based
# Description: Transfections and cell lysates preparation. […] Cell debris was removed by centrifugation. […] Equal amount of protein from cell lysates was run on SDS-PAGE. Separated proteins were transferred to nitrocellulose membrane and levels of Akt and p-Akt were determined by western blotting analysis. Akt antibody was from Cell Signaling (anti-Akt cat#9272, anti-p-Akt cat# 9271).
# [3] = system: Akt; assay: Akt kinase activity in immunoprecipitate (GSK-3 substrate) from MCF-7 cells; assay type: cell-based; conditions: MNAR overexpression, estradiol for 20 min
# Description: Transfections and cell lysates preparation. […] Cell debris was removed by centrifugation. […] Briefly, […] of GSK-3 fusion protein was added to the Akt-immunoprecipitate as a substrate. Kinase reaction was run in a reaction buffer supplied by the manufacturer. The level of p-GSK-3 produced in the kinase reaction was analyzed by western blotting analysis.
# [4] = biological target: T1, GST-VDR-LBD (Homo sapiens, UniProt P11473); assay: ELISA-based VDR-MNAR interaction analysis; assay type: binding; conditions: GST-VDR-LBD preincubated with vehicle or 1 μM 1,25(OH)2D3; peptide 50 μM
# T1 construct: made in house; host or cells: E. coli BL-21
# T1 sequence (P11473 110-427): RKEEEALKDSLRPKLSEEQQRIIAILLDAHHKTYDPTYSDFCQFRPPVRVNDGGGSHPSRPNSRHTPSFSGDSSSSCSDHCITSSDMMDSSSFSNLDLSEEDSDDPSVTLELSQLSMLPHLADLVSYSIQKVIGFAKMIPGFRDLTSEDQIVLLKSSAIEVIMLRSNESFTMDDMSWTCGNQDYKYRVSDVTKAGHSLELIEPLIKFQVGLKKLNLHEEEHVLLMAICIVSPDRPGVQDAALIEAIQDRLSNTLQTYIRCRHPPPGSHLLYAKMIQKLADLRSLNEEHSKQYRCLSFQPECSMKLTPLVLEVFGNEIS
# Description: ELISA-based VDR-MNAR interaction analysis. A rapid, nonisotopic ELISA-type method was used for characterization of VDR-MNAR interactions. Biotinylated peptides corresponding to different MNAR's LXXLL motifs (designated 1-9, sequentially from the most N-terminal motif) were synthesized and immobilized on a Reacti-Bind™ NeutrAvidin™-coated microplate (Pierce Biotechnology, Rockford, Ill.). The microplate was washed twice with binding buffer (50 mM Tris-HCL, pH 8.0, 150 mM NaCl, 1 mM DTT, 1 mM EDTA, 0.01% NP-40, and 0.01% BSA). Peptides were diluted in 100 μl binding buffer to a final concentration of 50 μM and incubated with the Reacti-Bind™ NeutrAvidin™ coated microplate for 1 hour at room temperature, washed 4 times with the binding buffer. GST-VDR-LBD, preincubated with vehicle or 1 μM 1,25(OH)2D3, was allowed to interact with the immobilized peptide corresponding to one of each of the MNAR LXXLL motifs for 2 hours at room temperature. The plate was washed 4 times with binding buffer and incubated with anti-GST antibodies fused to HRP (Sigma, St. Louis, Mo.) for 1 h in binding buffer and washed 4 more times. SuperSignal® ELISA Pico Chemiluminescent Substrate (Pierce Biotechnology, Rockford, Ill.) was used to detect antigen/antibody complex, signal was read using a Wallac Victor2 1420 Multilabel Counter (PerkinElmer Lifesciences, Boston, Mass.).
# [5] = system: Erk 1 and 2; assay: Western blotting analysis of Erk 1 and 2 phosphorylation in UMR-106 cells; assay type: cell-based, rat
# Description: Western blotting analysis. […] After 48 h cells were treated with 10 nM 1,25(OH)2D3 for the indicated time. […] Cell debris were removed by centrifugation and equal amount of protein was run on SDS-PAGE. Separated proteins were transferred to nitrocellulose membrane and levels of MNAR, ERK, and p-ERK were determined by western blotting analysis.
# [6] = system: osteocalcin; assay: Quantitative PCR (TaqMan) analysis of osteocalcin in UMR-106 cells; assay type: cell-based, rat; conditions: 100 nM, 24 h
# Description: (§1) Quantitative PCR (TaqMan) analysis. […] Following transfection cells were cultured in media supplemented with 2% charcoal stripped FBS. 16 hours after the transfection cells were treated with 100 nM 1,25(OH)2 Vit.D3 for 24 or 48 hours. Cells were lysed and total RNA was isolated using RNeasy Kit (Quiagen). Quantitative PCR (TaqMan) was performed to determine osteocalcin levels in UMR-106 cells and alkaline phosphatase levels in ROS 17/2.8 cells.
# [7] = system: alkaline phosphatase; assay: Quantitative PCR (TaqMan) analysis of alkaline phosphatase in ROS 17/2.8 cells; assay type: cell-based, rat; conditions: overexpression of MNAR, 100 nM, 48 h
# Description: as §1
# [8] = biological target: T2, GST-VDR ligand binding domain fusion protein (Homo sapiens, UniProt P11473); assay: GST pull-down interaction analysis; conditions: 35S-radiolabeled full length MNAR; absence or presence of 100 nM 1,25(OH)2 Vit. D3
# T2 construct: made in house; host or cells: E. coli BL-21 (GST-VDR-LBD); Promega TNT Quick Coupled Transcription/Translation System (MNAR)
# T2 sequence (Q8IZL8 whole entry E896G/T1069P partner, one chain of several, the tested form may be a part): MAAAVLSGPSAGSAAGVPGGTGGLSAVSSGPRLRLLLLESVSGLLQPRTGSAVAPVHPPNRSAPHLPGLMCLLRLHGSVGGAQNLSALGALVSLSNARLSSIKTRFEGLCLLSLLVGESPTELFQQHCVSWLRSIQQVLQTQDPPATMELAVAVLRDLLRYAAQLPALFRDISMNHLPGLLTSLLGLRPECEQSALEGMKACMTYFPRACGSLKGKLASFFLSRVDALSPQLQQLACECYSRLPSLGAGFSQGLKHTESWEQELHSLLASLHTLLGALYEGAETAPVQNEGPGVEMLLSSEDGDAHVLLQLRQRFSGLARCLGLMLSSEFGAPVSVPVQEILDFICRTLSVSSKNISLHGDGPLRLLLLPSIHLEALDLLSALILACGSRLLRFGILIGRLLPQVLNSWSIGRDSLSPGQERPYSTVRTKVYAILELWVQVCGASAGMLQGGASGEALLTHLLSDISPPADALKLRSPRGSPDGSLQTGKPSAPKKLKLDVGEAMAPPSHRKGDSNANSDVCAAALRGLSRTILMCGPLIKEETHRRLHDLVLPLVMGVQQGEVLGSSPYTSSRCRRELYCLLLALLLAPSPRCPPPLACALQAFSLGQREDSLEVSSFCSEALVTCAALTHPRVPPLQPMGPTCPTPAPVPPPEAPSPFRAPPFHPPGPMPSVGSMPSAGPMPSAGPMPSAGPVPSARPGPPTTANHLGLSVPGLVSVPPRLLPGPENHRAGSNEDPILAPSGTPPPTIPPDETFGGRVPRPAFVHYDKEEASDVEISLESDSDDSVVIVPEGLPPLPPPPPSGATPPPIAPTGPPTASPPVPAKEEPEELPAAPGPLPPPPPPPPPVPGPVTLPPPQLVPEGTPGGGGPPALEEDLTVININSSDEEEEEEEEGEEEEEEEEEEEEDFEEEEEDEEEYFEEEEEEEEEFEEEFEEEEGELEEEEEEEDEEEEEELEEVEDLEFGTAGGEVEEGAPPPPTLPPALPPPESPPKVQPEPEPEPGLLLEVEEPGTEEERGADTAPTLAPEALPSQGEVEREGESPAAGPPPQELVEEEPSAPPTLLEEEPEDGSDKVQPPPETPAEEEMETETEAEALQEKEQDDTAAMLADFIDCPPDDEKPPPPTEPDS
# Description: GST pull-down interaction analysis. A GST fusion to the ligand binding domain of VDR, amino acids 110-427, termed GST-VDR-LBD, was expressed in BL-21 cells and bound to glutathione-Sepharose 4B (Amersham Biosciences, Piscataway, NJ). Wild type MNAR was transcribed/translated and ^35S radiolabeled using Promega TNT Quick Coupled Transcription/Translation System (Madison, Wis.) and incubated for 1 hour at room temperature with GST-VDR-LBD fusion protein bound to glutathione-Sepharose 4B in the absence or presence of 100 nM 1,25(OH)2 Vit. D3 in binding buffer (50 mM Tris pH 8.0, 150 mM NaCl, 1 mM DTT, 1 mM PMSF, 1 mM EDTA, 0.05% NP-40, 1× Protease cocktail). Beads were then washed 4 times with the binding buffer and bound proteins were eluted by addition of SDS buffer and analyzed by SDS-PAGE and autoradiography.
molecule,measurement,setting,value
"C[C@]12CC[C@@H]3c4ccc(O)cc4CC[C@H]3[C@@H]1CC[C@@H]2O [estradiol, 17β-estradiol]",estrogen-dependant activation of PI3-K,"[1]; MCF-7 cells, MNAR overexpression, 10 nM estradiol for 20 min",increased
same,PI3-kinase activity,"[1]; MCF-7 cells, 10 nM for 20 min",stimulation of the PI3-kinase activity
same,phospho-Akt level,"[2]; MCF-7 cells transfected with MNAR-expressing plasmid vs empty vector, 10 nM estradiol for 20 min",strong increase in phospho-Akt level
same,level of phospho-Akt,"[2]; MCF-7 cells, 10 nM for 20 min",increased the level of phospho-Akt
same,estradiol induced Akt activation (GSK-3 phosphorylation),[3],stimulates
C[C@]12CC[C@@H]3c4ccc(O)cc4C[C@@H](CCCCCCCCC[S+]([O-])CCCC(F)(F)C(F)(F)F)[C@H]3[C@@H]1CC[C@@H]2O (stereo partly shown) [ICI 182 780],effect on estradiol activation of PI3-K activity,[1]; MCF-7 cells treated with 10 nM estradiol for 20 min,blocked
"MNAR LXXLL motif #5: biotinylated peptide corresponding to the fifth LXXLL motif of MNAR, counted from the most N-terminal motif (LPGLLTSLL; also: biotinylated, site not given here)",VDR ligand binding domain interaction with immobilized MNAR LXXLL peptide,[4],ligand-dependently interacted
"C=C1/C(=C\C=C2/CCC[C@]3(C)[C@@H]([C@H](C)CCCC(C)(C)O)CC[C@@H]23)C[C@@H](O)C[C@@H]1O [1,25(OH)2 Vit D3, 1,25 dihydroxy vitamin D3]",Erk phosphorylation,"[5]; MNAR overexpression, 10 nM",dramatic increase in Erk phosphorylation
same,levels of phosphorylated Erk 1 and 2,"[5]; absence of MNAR (control vector), 10 nM for 10 or 20 min",augmentation of the levels of phosphorylated Erk 1 and 2
same,"1,25(OH)2 Vit D3-stimulated levels of osteocalcin",[6]; MNAR overexpression,strong potentiation
same,level of osteocalcin expression,[6]; control plasmid,did not affect
same,induction of AP expression level,[7],strongly enhanced
"MNAR: modulator of nongenomic activity of estrogen receptor, scaffold protein, GenBank AF547989",MNAR interaction with VDR-LBD,[8],directly interacts with VDR-LBD in a ligand-dependent manner
